Earlier results, collected in patent US20240261272A1, “LPA1 ANTAGONISTS FOR TREATING INTERSTITIAL LUNG DISEASE” (Bristol-Myers Squibb Company, priority 2022, published 2024).

Tests used:
patients with IPF = conditions: cited from earlier work
patients with PPF = conditions: 52-week study period; cited from earlier work

SMILES | decline in lung function (in words) (patients with IPF) | progression of lung fibrosis, annual rate of decline in FVC versus placebo (in words) (patients with PPF)
Cc1ccc(=O)n(-c2ccccc2)c1 [pirfenidone] | significantly reduce the decline in lung function | 
COC(=O)c1ccc2c(c1)NC(=O)/C2=C(\Nc1ccc(N(C)C(=O)CN2CCN(C)CC2)cc1)c1ccccc1 [nintedanib] | significantly reduce the decline in lung function | slower progression of lung fibrosis than those who received placebo
